What was measured:
Type in all cases: in vivo
[1] = test system: barnyardgrass (Echinochloa crus-galli); test: Test A postemergence, barnyardgrass; conditions: 0 to 100 scale (0 no effect, 100 complete control), approx. 10 d
Text: (§1) Seeds of plant species selected from barnyardgrass (Echinochloa crus-galli), kochia (Kochia scoparia), ragweed (common ragweed, Ambrosia elatior), ryegrass, Italian (Italian ryegrass, Lolium multiflorum), foxtail, green (green foxtail, Setaria viridis), and pigweed (Amaranthus retroflexus) were planted into a blend of loam soil and sand and treated preemergence with a directed soil spray using test chemicals formulated in a non-phytotoxic solvent mixture which included a surfactant. At the same time, plants selected from these weed species and also wheat (Triticum aestivum), corn (Zea mays), blackgrass (Alopecurus myosuroides), and galium (catchweed bedstraw, Galium aparine) were planted in pots containing the same blend of loam soil and sand and treated with postemergence applications of test chemicals formulated in the same manner. Plants ranged in height from 2 to 10 cm and were in the one- to two-leaf stage for the postemergence treatment. Treated plants and untreated controls were maintained in a greenhouse for approximately 10 d, after which time all treated plants were compared to untreated controls and visually evaluated for injury. Plant response ratings, summarized in Table A, are based on a 0 to 100 scale where 0 is no effect and 100 is complete control. A dash (-) response means no test result.

kochia (Kochia scoparia) [2] = test: Test A postemergence, kochia; conditions: 0 to 100 scale (0 no effect, 100 complete control), approx. 10 d
Text: as §1

[3] = test system: ragweed (common ragweed, Ambrosia elatior); test: Test A postemergence, ragweed; conditions: 0 to 100 scale (0 no effect, 100 complete control), approx. 10 d
Text: as §1

[4] = test system: ryegrass, Italian (Italian ryegrass, Lolium multiflorum); test: Test A postemergence, Italian ryegrass; conditions: 0 to 100 scale (0 no effect, 100 complete control), approx. 10 d
Text: as §1

[5] = test system: foxtail, green (green foxtail, Setaria viridis); test: Test A postemergence, green foxtail; conditions: 0 to 100 scale (0 no effect, 100 complete control), approx. 10 d
Text: as §1

[6] = test system: pigweed (Amaranthus retroflexus); test: Test A postemergence, pigweed; conditions: 0 to 100 scale (0 no effect, 100 complete control), approx. 10 d
Text: as §1

[7] = test system: wheat (Triticum aestivum); test: Test A postemergence, wheat; conditions: 0 to 100 scale (0 no effect, 100 complete control), approx. 10 d
Text: as §1

corn (Zea mays) = test: Test A postemergence, corn; conditions: 0 to 100 scale (0 no effect, 100 complete control), approx. 10 d
Text: as §1

[8] = test system: blackgrass (Alopecurus myosuroides); test: Test A postemergence, blackgrass; conditions: 0 to 100 scale (0 no effect, 100 complete control), approx. 10 d
Text: as §1

[9] = test system: galium (catchweed bedstraw, Galium aparine); test: Test A postemergence, galium; conditions: 0 to 100 scale (0 no effect, 100 complete control), approx. 10 d
Text: as §1

[10] = test system: barnyardgrass (Echinochloa crus-galli); test: Test A preemergence, barnyardgrass; conditions: 0 to 100 scale (0 no effect, 100 complete control), approx. 10 d
Text: as §1

kochia (Kochia scoparia) [11] = test: Test A preemergence, kochia; conditions: 0 to 100 scale (0 no effect, 100 complete control), approx. 10 d
Text: as §1

[12] = test system: ragweed (common ragweed, Ambrosia elatior); test: Test A preemergence, ragweed; conditions: 0 to 100 scale (0 no effect, 100 complete control), approx. 10 d
Text: as §1

[13] = test system: ryegrass, Italian (Italian ryegrass, Lolium multiflorum); test: Test A preemergence, Italian ryegrass; conditions: 0 to 100 scale (0 no effect, 100 complete control), approx. 10 d
Text: as §1

[14] = test system: foxtail, green (green foxtail, Setaria viridis); test: Test A preemergence, green foxtail; conditions: 0 to 100 scale (0 no effect, 100 complete control), approx. 10 d
Text: as §1

[15] = test system: pigweed (Amaranthus retroflexus); test: Test A preemergence, pigweed; conditions: 0 to 100 scale (0 no effect, 100 complete control), approx. 10 d
Text: as §1

[16] = test system: barnyardgrass (Echinochloa crus-galli); test: Test B flooded paddy test, barnyardgrass; conditions: Flood, 250 g ai/ha; applied to paddy water at 2-leaf stage; visual rating after 13 to 15 d; scale 0 to 100, 0 is no effect, 100 is complete control
Method: (§2) Plant species in the flooded paddy test selected from rice (Oryza sativa), sedge, umbrella (small-flower umbrella sedge, Cyperus difformis), ducksalad (Heteranthera limosa), and barnyardgrass (Echinochloa crus-galli) were grown to the 2-leaf stage for testing. At time of treatment, test pots were flooded to 3 cm above the soil surface, treated by application of test compounds directly to the paddy water, and then maintained at that water depth for the duration of the test. Treated plants and controls were maintained in a greenhouse for 13 to 15 d, after which time all species were compared to controls and visually evaluated. Plant response ratings, summarized in Table B, are based on a scale of 0 to 100 where 0 is no effect and 100 is complete control. A dash (-) response means no test result.

[17] = test system: ducksalad (Heteranthera limosa); test: Test B flooded paddy test, ducksalad; conditions: Flood, 250 g ai/ha; applied to paddy water at 2-leaf stage; visual rating after 13 to 15 d; scale 0 to 100, 0 is no effect, 100 is complete control
Method: as §2

rice (Oryza sativa) = test: Test B flooded paddy test, rice; conditions: Flood, 250 g ai/ha; applied to paddy water at 2-leaf stage; visual rating after 13 to 15 d; scale 0 to 100, 0 is no effect, 100 is complete control
Method: as §2

[18] = test system: sedge, umbrella (small-flower umbrella sedge, Cyperus difformis); test: Test B flooded paddy test, umbrella sedge; conditions: Flood, 250 g ai/ha; applied to paddy water at 2-leaf stage; visual rating after 13 to 15 d; scale 0 to 100, 0 is no effect, 100 is complete control
Method: as §2

CC(=O)[C@@]1(C(=O)Nc2cccc(F)c2F)C(=O)N(C)C[C@@H]1c1ccc(C(F)(F)F)cc1 [Compound 1, (3S,4R)-3-acetyl-N-(2,3-difluorophenyl)-1-methyl-2-oxo-4-[4-(trifluoromethyl)phenyl]-3-pyrrolidinecarboxamide]
Plant response rating, Barnyardgrass ([1]; 31 g ai/ha): 70
Plant response rating, Barnyardgrass ([1]; 125 g ai/ha): 90
Plant response rating, Kochia (kochia (Kochia scoparia) [2]; 31 g ai/ha): 20
Plant response rating, Kochia (kochia (Kochia scoparia) [2]; 125 g ai/ha): 70
Plant response rating, Ragweed ([3]; 31 g ai/ha): 0
Plant response rating, Ragweed ([3]; 125 g ai/ha): 40
Plant response rating, Ryegrass, Italian ([4]; 31 g ai/ha): 60
Plant response rating, Ryegrass, Italian ([4]; 125 g ai/ha): 80
Plant response rating, Foxtail, Green ([5]; 31 g ai/ha): 50
Plant response rating, Foxtail, Green ([5]; 125 g ai/ha): 90
Plant response rating, Pigweed ([6]; 31 g ai/ha): 30
Plant response rating, Pigweed ([6]; 125 g ai/ha): 80
Plant response rating, Wheat ([7]; 31 g ai/ha): 20
Plant response rating, Wheat ([7]; 125 g ai/ha): 50
Plant response rating, Corn (corn (Zea mays); 31 g ai/ha): 20
Plant response rating, Corn (corn (Zea mays); 125 g ai/ha): 80
Plant response rating, Blackgrass ([8]; 31 g ai/ha): 0
Plant response rating, Blackgrass ([8]; 125 g ai/ha): 50
Plant response rating, Galium ([9]; 31 g ai/ha): 50
Plant response rating, Galium ([9]; 125 g ai/ha): 60
Plant response rating, Barnyardgrass ([10]; 31 g ai/ha): 80
Plant response rating, Barnyardgrass ([10]; 125 g ai/ha): 90
Plant response rating, Kochia (kochia (Kochia scoparia) [11]; 31 g ai/ha): 40
Plant response rating, Kochia (kochia (Kochia scoparia) [11]; 125 g ai/ha): 80
Plant response rating, Ragweed ([12]; 31 g ai/ha): 20
Plant response rating, Ragweed ([12]; 125 g ai/ha): 70
Plant response rating, Ryegrass, Italian ([13]; 31 g ai/ha): 30
Plant response rating, Ryegrass, Italian ([13]; 125 g ai/ha): 60
Plant response rating, Foxtail, Green ([14]; 31 g ai/ha): 90
Plant response rating, Foxtail, Green ([14]; 125 g ai/ha): 90
Plant response rating, Pigweed ([15]; 31 g ai/ha): 50
Plant response rating, Pigweed ([15]; 125 g ai/ha): 90
Plant response rating, Barnyardgrass [16]: 70
Plant response rating, Ducksalad [17]: 90
Plant response rating, Rice (rice (Oryza sativa)): 0
Plant response rating, Sedge, Umbrella [18]: 0

CC(=O)OC[C@@]1(C(=O)Nc2cccc(F)c2F)C(=O)N(C)C[C@@H]1c1ccc(C(F)(F)F)cc1 [Compound 2, (3S,4R)-3-[(acetyloxy)methyl]-N-(2,3-difluorophenyl)-1-methyl-2-oxo-4-[4-(trifluoromethyl)phenyl]-3-pyrrolidincarboxamide]
Plant response rating, Barnyardgrass ([1]; 31 g ai/ha): 0
Plant response rating, Barnyardgrass ([1]; 125 g ai/ha): 50
Plant response rating, Kochia (kochia (Kochia scoparia) [2]; 31 g ai/ha): 0
Plant response rating, Kochia (kochia (Kochia scoparia) [2]; 125 g ai/ha): 40
Plant response rating, Ragweed ([3]; 31 g ai/ha): 0
Plant response rating, Ragweed ([3]; 125 g ai/ha): 40
Plant response rating, Ryegrass, Italian ([4]; 31 g ai/ha): 20
Plant response rating, Ryegrass, Italian ([4]; 125 g ai/ha): 50
Plant response rating, Foxtail, Green ([5]; 31 g ai/ha): 20
Plant response rating, Foxtail, Green ([5]; 125 g ai/ha): 70
Plant response rating, Pigweed ([6]; 31 g ai/ha): 20
Plant response rating, Pigweed ([6]; 125 g ai/ha): 40
Plant response rating, Wheat ([7]; 31 g ai/ha): 0
Plant response rating, Wheat ([7]; 125 g ai/ha): 20
Plant response rating, Corn (corn (Zea mays); 31 g ai/ha): 0
Plant response rating, Corn (corn (Zea mays); 125 g ai/ha): 40
Plant response rating, Blackgrass ([8]; 31 g ai/ha): 0
Plant response rating, Blackgrass ([8]; 125 g ai/ha): 10
Plant response rating, Galium ([9]; 31 g ai/ha): 0
Plant response rating, Galium ([9]; 125 g ai/ha): 40
Plant response rating, Barnyardgrass ([10]; 31 g ai/ha): 50
Plant response rating, Barnyardgrass ([10]; 125 g ai/ha): 80
Plant response rating, Kochia (kochia (Kochia scoparia) [11]; 31 g ai/ha): 20
Plant response rating, Kochia (kochia (Kochia scoparia) [11]; 125 g ai/ha): 50
Plant response rating, Ragweed ([12]; 31 g ai/ha): 0
Plant response rating, Ragweed ([12]; 125 g ai/ha): 30
Plant response rating, Ryegrass, Italian ([13]; 31 g ai/ha): 0
Plant response rating, Ryegrass, Italian ([13]; 125 g ai/ha): 10
Plant response rating, Foxtail, Green ([14]; 31 g ai/ha): 60
Plant response rating, Foxtail, Green ([14]; 125 g ai/ha): 90
Plant response rating, Pigweed ([15]; 31 g ai/ha): 20
Plant response rating, Pigweed ([15]; 125 g ai/ha): 80
Plant response rating, Barnyardgrass [16]: 65
Plant response rating, Ducksalad [17]: 95
Plant response rating, Rice (rice (Oryza sativa)): 30
Plant response rating, Sedge, Umbrella [18]: 0
